PMC6899670 (The Febs Journal, 2019)
Where two headings read alike, the source gives them in different places.

What was measured:
[1] = molecular target: T1, BpDdl (Burkholderia pseudomallei D-alanine-D-alanine ligase) (Burkholderia pseudomallei, UniProt Q63QJ9); conditions: substrate inhibition at high ATP; 10 mM D-Ala, pH 8, 10 mM MgCl2, 100 mM KCl, 30 °C; enzyme co-purified with AMP
T1 construct: gene ddl

[2] = molecular target: T1, BpDdl (Burkholderia pseudomallei D-alanine-D-alanine ligase); assay: biochemical
[3] = molecular target: T1, BpDdl (Burkholderia pseudomallei D-alanine-D-alanine ligase); assay: biochemical; remark: listed apart in the source

T1 sequence (Q63QJ9 whole entry, looked up): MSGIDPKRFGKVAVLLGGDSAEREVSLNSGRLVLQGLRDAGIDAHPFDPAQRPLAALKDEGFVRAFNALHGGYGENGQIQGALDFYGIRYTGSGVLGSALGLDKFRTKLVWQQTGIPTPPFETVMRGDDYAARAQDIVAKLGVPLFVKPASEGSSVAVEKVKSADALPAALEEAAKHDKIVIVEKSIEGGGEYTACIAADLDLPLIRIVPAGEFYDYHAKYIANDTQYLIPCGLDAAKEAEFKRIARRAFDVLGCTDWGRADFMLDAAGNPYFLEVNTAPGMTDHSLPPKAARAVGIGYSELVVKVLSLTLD

Nc1ncnc2c1ncn2[C@@H]1O[C@H](COP(=O)(O)OP(=O)(O)OP(=O)(O)O)[C@@H](O)[C@H]1O [ATP]
K i,ATP [1]: 3.16 ± 0.59 mM

N[C@@H]1CON=C1O [DCS]
Ki [2]: 0.1 mM

CC(=O)NCc1ccccc1Cl [compound identified in the fragment screen]
Ki [3]: 10 mM
